From patent US11753410B2, “Hormone receptor modulators for treating metabolic mutagenic and fibrotic conditions and disorders” (priority 2017, dated 2023)

Molecular target: T1, ligand binding domain of human FXR (Homo sapiens, UniProt Q96RI1)
T1 construct: purchased Thermofisher (LanthaScreen) PV4833
T1 sequence (Q96RI1 262-486 limits assumed): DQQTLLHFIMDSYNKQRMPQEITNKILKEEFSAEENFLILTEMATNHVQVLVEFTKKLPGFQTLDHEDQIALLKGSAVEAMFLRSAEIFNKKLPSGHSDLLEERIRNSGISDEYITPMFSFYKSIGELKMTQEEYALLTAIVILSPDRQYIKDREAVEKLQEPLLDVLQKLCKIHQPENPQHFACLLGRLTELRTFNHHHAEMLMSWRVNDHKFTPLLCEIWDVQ
Experiment: biochemical
Settings: for Emax: extent of activation relative to GW4064, read-out: Ligand Binding % Efficacy; for EC50: −log EC50, concentration required to produce 50% activation, FRET 520 nm/495 nm, 1 hour at room temperature, read-out: Ligand Binding pEC50 (converted)
Procedure: The affinity of FXR ligands for the ligand binding domain of FXR was determined using a commercially available human FXR ligand binding assay (LanthaScreen, Thermofisher Cat #PV4833). […] Binding of FXR ligands to the FXR ligand binding domain promotes binding of the fluorescein-labelled SRC2-2 peptide. This causes a FRET signal between the terbium-labelled anti-GST antibody and the fluorescein-labelled SRC peptide which are both bound to the FXR ligand binding domain.
Test compounds are dissolved in DMSO and a 3-fold serial dilution series is generated, then further diluted into assay buffer. The compounds are mixed with 5 nM GST-tagged FXR ligand binding domain, 5 nM Tb-labelled anti-GST antibody and 500 nM fluorescein-labelled SRC2-2 peptide in a pH7.4 buffer. The reaction is incubated at room temperature for 1 hour, then the FRET signal is measured as the ratio of the 520 nm/495 nm emission following excitation at 340 nm. The change in FRET signal is plotted against the test article concentration and fit to a 3-parameter logistical equation.

## C[C@@H]1[C@@H]2C[C@@H](C[C@H]2OCc2c(C3CC3)cnn2-c2c(Cl)cccc2Cl)N1c1ccc(C(=O)O)cc1 [Compound I-14, 4-[(1S,3R,4S,5R)-5-{[4-cyclopropyl-1-(2,6-dichlorophenyl)-1H-pyrazol-5-yl]methoxy}-3-methyl-2-azabicyclo[2.2.1]heptan-2-yl]benzoic acid]
  Emax: 48%
  EC50: 398 nM

## O=C(O)CCc1ccc(N2C[C@@H]3C[C@H]2C[C@H]3OCc2c(C3CC3)cnn2-c2c(F)cccc2F)c(F)c1 [Compound I-35, 3-{4-[(1S,4S,5R)-5-{[4-cyclopropyl-1-(2,6-difluorophenyl)-1H-pyrazol-5-yl]methoxy}-2-azabicyclo[2.2.1]heptan-2-yl]-3-fluorophenyl}propanoic acid]
  Emax: 152%
  EC50: 631 nM

## O=C(NS(=O)(=O)C1CC1)c1ccc(N2C[C@@H]3C[C@H]2C[C@H]3OCc2c(C3CC3)cnn2-c2c(Cl)cccc2Cl)cc1 [Compound I-22, 4-((1S,4S,5R)-5-((4-cyclopropyl-1-(2,6-dichlorophenyl)-1H-pyrazol-5-yl)methoxy)-2-azabicyclo[2.2.1]heptan-2-yl)-N-(cyclopropylsulfonyl)benzamide]
  Emax: 166%
  EC50: 3.98 nM

## CC[C@@H]1[C@@H]2C[C@@H](C[C@H]2OCc2c(C3CC3)cnn2-c2c(Cl)cccc2Cl)N1c1ccc(C(=O)O)cc1 [Compound I-16, 4-[(1S,3R,4S,5R)-5-{[4-cyclopropyl-1-(2,6-dichlorophenyl)-1H-pyrazol-5-yl]methoxy}-3-ethyl-2-azabicyclo[2.2.1]heptan-2-yl]benzoic acid]
  Emax: 52%
  EC50: 1000 nM

## Cc1cccc(Cl)c1-n1ncc(C2CC2)c1CO[C@@H]1C[C@@H]2C[C@H]1CN2c1ccc(CCC(=O)O)cc1F [Compound I-37, 3-{4-[(1S,4S,5R)-5-{[1-(2-chloro-6-methylphenyl)-4-cyclopropyl-1H-pyrazol-5-yl]methoxy}-2-azabicyclo[2.2.1]heptan-2-yl]-3-fluorophenyl}propanoic acid]
  Emax: 176%
  EC50: 39.8 nM

## O=C(O)c1ccc(N2C(=O)[C@@H]3C[C@H]2C[C@H]3OCc2c(C3CC3)cnn2-c2c(Cl)cccc2Cl)cc1F [Compound I-12, 4-[(1S,4R,5R)-5-{[4-cyclopropyl-1-(2,6-dichlorophenyl)-1H-pyrazol-5-yl]methoxy}-3-oxo-2-azabicyclo[2.2.1]heptan-2-yl]-2-fluorobenzoic acid]
  Emax: 176%
  EC50: 39.8 nM

## CC[C@H]1[C@H]2C[C@H](C[C@@H]2OCc2c(C3CC3)cnn2-c2c(Cl)cccc2Cl)N1c1ccc(C(=O)O)c(F)c1 [Compound I-19, 4-[(1R,3S,4R,5S)-5-{[4-cyclopropyl-1-(2,6-dichlorophenyl)-1H-pyrazol-5-yl]methoxy}-3-ethyl-2-azabicyclo[2.2.1]heptan-2-yl]-2-fluorobenzoic acid]
  Emax: 30%

## CC[C@@H]1[C@@H]2C[C@@H](C[C@H]2OCc2c(C3CC3)cnn2-c2c(Cl)cccc2Cl)N1c1ccc(C(=O)O)c(F)c1 [Compound I-18, 4-[(1S,3R,4S,5R)-5-{[4-cyclopropyl-1-(2,6-dichlorophenyl)-1H-pyrazol-5-yl]methoxy}-3-ethyl-2-azabicyclo[2.2.1]heptan-2-yl]-2-fluorobenzoic acid]
  Emax: 47%

## CC[C@H]1[C@H]2C[C@H](C[C@@H]2OCc2c(C3CC3)cnn2-c2c(Cl)cccc2Cl)N1c1ccc(C(=O)O)cc1 [Compound I-17, 4-[(1R,3S,4R,5S)-5-{[4-cyclopropyl-1-(2,6-dichlorophenyl)-1H-pyrazol-5-yl]methoxy}-3-ethyl-2-azabicyclo[2.2.1]heptan-2-yl]benzoic acid]
  Emax: 15%

## Cc1cccc(C)c1-n1ncc(C2CC2)c1CO[C@@H]1C[C@@H]2C[C@H]1CN2c1ccc(C(=O)O)c(F)c1 [Compound I-7, 4-[(1S,4S,5R)-5-{[4-cyclopropyl-1-(2,6-dimethylphenyl)-1H-pyrazol-5-yl]methoxy}-2-azabicyclo[2.2.1]heptan-2-yl]-2-fluorobenzoic acid]
  Emax: 134%
  EC50: 25.1 nM
